Results from patent US6825192B1, “Heterodiazinone derivatives” (Eisai Co., Ltd., priority 1999, dated 2004).
Counter-ions that a name gives are not always drawn.

Test system: AMPA receptor
Assay: Inhibitory action on AMPA-inducing inflow of calcium into nerve cells (Fura2-AM)
Type: cell-based
Details: rat cerebral cortex nerve cells on astrocytes, 1 μM MK-801, stimulated by 2 μM AMPA, fluorescence 340/380 nm
Protocol: The cerebral cortex was excised from the brain of a rat on day 18 after birth and treated with trypsin and DNase, whereby the cells were dispersed. The cells were allowed to float on DMEM containing 10% serum, inoculated into a culture bottle, and their astrocytes were grown. The astrocytes were re-dispersed with trypsin and inoculated onto each well on a 96-well plate. After it was confirmed that the bottom of each well was completely covered with the astrocytes after culture for 1 week, cerebral cortex nerve cells dispersed in the same manner as above were inoculated thereon. After 24 hours, the medium was exchanged with fresh one, and after culture for further 1 week, the medium was exchanged with a medium containing 1 μM MK-801.
The inflow of calcium into the cells was measured using Fura2-AM that is a calcium-sensitive fluorescent pigment. By treating the cells with a Fura2-AM-containing medium for 1 hour, Fura2-AM was incorporated into the cells, and the medium was exchanged with a Tyrode solution containing 1 μM MK-801. After a test compound was added, the cells were stimulated by 2 μM AMPA. The change in the amount of calcium flowing into the cells was measured as a change in the fluorescence intensity at wavelengths of 340/380 nm. The effect of a test compound was evaluated where the reaction caused by AMPA added to the Tyrode solution free of the test compound was used as the control.

IC50 [µM] | SMILES
33.2 | Cn1cccc1C1=NN(c2ccccc2)C(=O)CO1 [Example 3, 2-(1-Methyl-2-pyrolyl)-4-phenyl-4H-1,3,4-oxadiazine-5(6H)-one]
12 | O=C1CSC(c2ccccc2)=NN1c1ccccc1 [Example 4, 2,4-Diphenyl-4H-1,3,4-thiadiazine-5(6H)-one]
48 | O=C1COC(c2ccc[nH]2)=NN1c1ccccc1 [Example 6, 2-(2-Pyrrolyl)-4-phenyl-4H-1,3,4-oxadiazine-5(6H)-one]
21.1 | Cc1cccc(C2=NN(c3ccccc3)C(=O)CO2)n1 [Example 8, 2-(6-Methyl-2-pyridyl)-4-phenyl-4H-1,3,4-oxadiazine-5(6H)-one hydrochloride]
42.8 | O=C1COC(c2ccnc(Cl)c2)=NN1c1ccccc1 [Example 12, 2-(2-Chloro-4-pyridyl)-4-phenyl-4H-1,3,4-oxadiazine-5(6H)-one hydrochloride]
28.2 | O=C1COC(c2ccccc2[N+](=O)[O-])=NN1c1ccccc1 [Example 20, 2-(2-Nitrophenyl)-4-phenyl-4H-1,3,4-oxadiazine-5(6H)-one]
1.73 | O=C1COC(c2ccccc2)=NN1c1ccccc1Br [Example 30, 2-Phenyl-4-(2-bromophenyl)-4H-1,3,4-oxadiazine-5(6H)-one]
8.3 | O=C1COC(c2cccs2)=NN1c1ccccc1 [Example 31, 2-(2-Thienyl)-4-phenyl-4H-1,3,4-oxadiazine-5(6H)-one]
36.6 | O=C1COC(Cc2ccccc2)=NN1c1ccccc1 [Example 32, 2-Benzyl-4-phenyl-4H-1,3,4-oxadiazine-5(6H)-one]
4.28 | O=C1COC(c2ccccn2)=NN1c1ccccc1Br [Example 33, 2-(2-Pyridyl)-4-(2-bromophenyl)-4H-1,3,4-oxadiazine-5(6H)-one]
9.21 | O=C1COC(c2ccccn2)=NN1c1ccccc1F [Example 34, 2-(2-Pyridyl)-4-(2-fluorophenyl)-4H-1,3,4-oxadiazine-5(6H)-one]
42.7 | COc1ccccc1N1N=C(c2ccccn2)OCC1=O [Example 35, 2-(2-Pyridyl)-4-(2-methoxyphenyl)-4H-1,3,4-oxadiazine-5(6H)-one]
3.94 | O=C1COC(c2ccccc2)=NN1c1ccccc1[N+](=O)[O-] [Example 37, 2-Phenyl-4-(2-nitrophenyl)-4H-1,3,4-oxadiazine-5(6H)-one]
51.4 | O=C1COC(c2ccccc2)=NN1c1cccnc1 [Example 39, 2-Phenyl-4-(3-pyridyl)-4H-1,3,4-oxadiazine-5(6H)-one hydrochloride]
34.8 | N#Cc1cccnc1N1N=C(c2ccccc2)OCC1=O [Example 40, 2-Phenyl-4-(3-cyano-2-pyridyl)-4H-1,3,4-oxadiazine-5(6H)-one hydrochloride]
53.3 | O=C1COC(c2ccccc2)=NN1c1ccccc1CO [Example 41, 2-Phenyl-4-(2-hydroxymethylphenyl)-4H-1,3,4-oxadiazine-5(6H)-one]
3.13 | N#Cc1ncccc1N1N=C(c2ccccc2)OCC1=O [Example 42, 2-Phenyl-4-(2-cyano-3-pyridyl)-4H-1,3,4-oxadiazine-5(6H)-one hydrochloride]
25.3 | O=C1COC(c2ccccc2)=NN1c1cccs1 [Example 43, 2-Phenyl-4-(2-thienyl)-4H-1,3,4-oxadiazine-5(6H)-one]
22.7 | O=C1COC(c2ccccc2)=NN1c1ccsc1 [Example 44, 2-Phenyl-4-(3-thienyl)-4H-1,3,4-oxadiazine-5(6H)-one]
13.1 | N#Cc1cccc(N2N=C(c3ccccc3)OCC2=O)c1 [Example 46, 2-Phenyl-4-(3-cyanophenyl)-4H-1,3,4-oxadiazine-5(6H)-one]
1.29 | O=C1COC(c2ccccc2O)=NN1c1ccccc1Br [Example 48, 2-(2-hydroxyphenyl)-4-(2-bromophenyl)-4H-1,3,4-oxadiazine-5(6H)-one]
2.7 | O=C1COC(c2ccccc2O)=NN1c1ccccc1 [Example 49, 2-(2-Hydroxyphenyl)-4-phenyl-4H-1,3,4-oxadiazine-5(6H)-one]
27.9 | O=C1COC(c2ccccc2)=NN1c1ccccc1O [Example 50, 2-Phenyl-4-(2-hydroxyphenyl)-4H-1,3,4-oxadiazine-5(6H)-one]
1.06 | O=C1COC(c2ccccc2O)=NN1c1ccccc1F [Example 51, 2-(2-Hydroxyphenyl)-4-(2-fluorophenyl)-4H-1,3,4-oxadiazine-5(6H)-one]
1.52 | O=C1COC(c2ccccc2O)=NN1c1ccc(F)cc1 [Example 52, 2-(2-Hydroxyphenyl)-4-(4-fluorophenyl)-4H-1,3,4-oxadiazine-5(6H)-one]

Continued, molecule first:

SMILES | IC50 [µM]
O=C1COC(c2ccccn2)=NN1c1ccc(F)cc1F [Example 10, 2-(2-Pyridyl)-4-(2,4-difluorophenyl)-4H-1,3,4-oxadiazine-5(6H)-one hydrochloride] | 44.2
O=C1COC(c2ccccn2)=NN1C1CCCCC1 [Example 11, 2-(2-Pyridyl)-4-cyclohexyl-4H-1,3,4-oxadiazine-5(6H)-one hydrochloride] | 69
O=C1COC(/C=C/c2ccccc2)=NN1c1ccccc1 [Example 15, 2-Styryl-4-phenyl-4H-1,3,4-oxadiazine-5(6H)-one] | 27.5
O=C1COC(/C=C/c2cccnc2)=NN1c1ccccc1 [Example 16, 2-[2-(3-Pyridyl)vinyl]-4-phenyl-4H-1,3,4-oxadiazine-5(6H)-one] | 24.9
COc1ccccc1C1=NN(c2ccccc2Br)C(=O)CO1 [Example 17, 2-(2-Methoxyphenyl)-4-(2-bromophenyl)-4H-1,3,4-oxadiazine-5(6H)-one] | 5.83
O=C1COC(C2CCCCC2)=NN1c1ccccc1 [Example 22, 2-Cyclohexyl-4-phenyl-4H-1,3,4-oxadiazine-5(6H)-one] | 67.3
COc1ccccc1C1=NN(c2ccccc2F)C(=O)CO1 [Example 26, 2-(2-Methoxyphenyl)-4-(2-fluorophenyl)-4H-1,3,4-oxadiazine-5(6H)-one] | 10.8
O=C1COC(c2ccccc2)=NN1C1CCCCC1 [Example 27, 2-Phenyl-4-cyclohexyl-4H-1,3,4-oxadiazine-5(6H)-one] | 33.1
COc1ccccc1C1=NN(C2CCCCC2)C(=O)CO1 [Example 28, 2-(2-Methoxyphenyl)-4-cyclohexyl-4H-1,3,4-oxadiazine-5(6H)-one] | 25.2
O=C1COC(c2cccnc2)=NN1c1ccccc1 [Example 29, 2-(3-Pyridyl)-4-phenyl-4H-1,3,4-oxadiazine-5(6H)-one hydrochloride] | 43.5
O=C1COC(c2ccccc2O)=NN1c1ccc(F)cc1F [Example 53, 2-(2-Hydroxyphenyl)-4-(2,4-difluorophenyl)-4H-1,3,4-oxadiazine-5(6H)-one] | 1.92
O=C1COC(c2ccccc2OCc2ccncc2)=NN1c1ccccc1 [Example 55, 2-[2-(4-Pyridyl)methoxyphenyl]-4-phenyl-4H-1,3,4-oxadiazine-5(6H)-one] | 10.5
O=C1COC(c2ccccc2OCCN2CCOCC2)=NN1c1ccccc1 [Example 56, 2-{2-[2-(4-Morpholinyl)ethoxy]phenyl}-4-phenyl-4H-1,3,4-oxadiazine-5(6H)-one hydrochloride] | 17.6
O=C1COC(c2ccccc2OCc2cccnc2)=NN1c1ccccc1 [Example 58, 2-[2-(3-Pyridyl)methoxyphenyl]-4-phenyl-4H-1,3,4-oxadiazine-5(6H)-one hydrochloride] | 14.3
O=C1COC(c2ccccc2OCCN2CCCCC2)=NN1c1ccccc1 [Example 59, 2-{2-[2-(1-Piperidyl)ethoxy]phenyl}-4-phenyl-4H-1,3,4-oxadiazine-5(6H)-one] | 8.29
O=C1COC(c2ccccc2OCCN2CCCC2)=NN1c1ccccc1 [Example 60, 2-{2-[2-(1-Pyrrolidinyl)ethoxy]phenyl}-4-phenyl-4H-1,3,4-oxadiazine-5(6H)-one] | 7.26
CN(C)CCOc1ccccc1C1=NN(c2ccccc2)C(=O)CO1 [Example 61, 2-[2-(2-Dimethylaminoethoxy)phenyl]-4-phenyl-4H-1,3,4-oxadiazine-5(6H)-one hydrochloride] | 4.61
CN(C)CCCOc1ccccc1C1=NN(c2ccccc2)C(=O)CO1 [Example 62, 2-[2-(3-Dimethylaminopropoxy)phenyl]-4-phenyl-4H-1,3,4-oxadiazine-5(6H)-one hydrochloride] | 25.1
O=C1COC(c2ccccc2OCCCN2CCCCC2)=NN1c1ccccc1 [Example 63, 2-{2-[3-(1-Piperidinyl)propoxy]phenyl}-4-phenyl-4H-1,3,4-oxadiazine-5(6H)-one hydrochloride] | 24.7
CN(C)CCOc1ccccc1C1=NN(c2ccccc2F)C(=O)CO1 [Example 66, 2-[2-(2-Dimethylaminoethoxy)phenyl]-4-(2-fluorophenyl)-4H-1,3,4-oxadiazine-5(6H)-one hydrochloride] | 3.54
O=C1COC(c2ccccc2OCCN2CCOCC2)=NN1c1ccccc1F [Example 67, 2-{2-[2-(4-Morpholinyl)ethoxy]phenyl}-4-(2-fluorophenyl)-4H-1,3,4-oxadiazine-5(6H)-one hydrochloride] | 6.62
O=C1COC(c2ccccc2OCCN2CCOCC2)=NN1C1CCCCC1 [Example 69, 2-{2-[2-(4-Morpholinyl)ethoxy]phenyl}-4-cyclohexyl-4H-1,3,4-oxadiazine-5(6H)-one hydrochloride] | 68.7
